Reference: US11919887B2, “Substituted tetrahydrofurans as modulators of sodium channels” (Vertex Pharmaceuticals Incorporated, priority 2019, dated 2024)
Where two headings read alike, the source gives them in different places.

Target: human Nav 1.8 (Homo sapiens, UniProt Q9Y5Y9)
Test: E-VIPR assay detecting and measuring Nav inhibition (HEK cells expressing truncated human Nav 1.8)
Assay type: cell-based
How it was run: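 HEK cells expressing truncated human Nav1.8, transduced with KIR2.1 BacMam, were loaded with CC2-DMPE/DiSBAC6(3) FRET dyes and tested under electrical stimulation (E-VIPR). Compounds were run as 11-point 3-fold dilutions, top 300 nM final, 0.625% DMSO, with or without 25% human serum.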

[1] = in the Presence of Human Serum in the E-VIPR Assay, read-out: IC50
[2] = in the Absence of Human Serum in the E-VIPR Assay
[3] = in the Absence of Human Serum in the E-VIPR Assay, read-out: IC50

Sequence of human Nav 1.8 (Q9Y5Y9 whole entry, looked up, the tested form may be a part): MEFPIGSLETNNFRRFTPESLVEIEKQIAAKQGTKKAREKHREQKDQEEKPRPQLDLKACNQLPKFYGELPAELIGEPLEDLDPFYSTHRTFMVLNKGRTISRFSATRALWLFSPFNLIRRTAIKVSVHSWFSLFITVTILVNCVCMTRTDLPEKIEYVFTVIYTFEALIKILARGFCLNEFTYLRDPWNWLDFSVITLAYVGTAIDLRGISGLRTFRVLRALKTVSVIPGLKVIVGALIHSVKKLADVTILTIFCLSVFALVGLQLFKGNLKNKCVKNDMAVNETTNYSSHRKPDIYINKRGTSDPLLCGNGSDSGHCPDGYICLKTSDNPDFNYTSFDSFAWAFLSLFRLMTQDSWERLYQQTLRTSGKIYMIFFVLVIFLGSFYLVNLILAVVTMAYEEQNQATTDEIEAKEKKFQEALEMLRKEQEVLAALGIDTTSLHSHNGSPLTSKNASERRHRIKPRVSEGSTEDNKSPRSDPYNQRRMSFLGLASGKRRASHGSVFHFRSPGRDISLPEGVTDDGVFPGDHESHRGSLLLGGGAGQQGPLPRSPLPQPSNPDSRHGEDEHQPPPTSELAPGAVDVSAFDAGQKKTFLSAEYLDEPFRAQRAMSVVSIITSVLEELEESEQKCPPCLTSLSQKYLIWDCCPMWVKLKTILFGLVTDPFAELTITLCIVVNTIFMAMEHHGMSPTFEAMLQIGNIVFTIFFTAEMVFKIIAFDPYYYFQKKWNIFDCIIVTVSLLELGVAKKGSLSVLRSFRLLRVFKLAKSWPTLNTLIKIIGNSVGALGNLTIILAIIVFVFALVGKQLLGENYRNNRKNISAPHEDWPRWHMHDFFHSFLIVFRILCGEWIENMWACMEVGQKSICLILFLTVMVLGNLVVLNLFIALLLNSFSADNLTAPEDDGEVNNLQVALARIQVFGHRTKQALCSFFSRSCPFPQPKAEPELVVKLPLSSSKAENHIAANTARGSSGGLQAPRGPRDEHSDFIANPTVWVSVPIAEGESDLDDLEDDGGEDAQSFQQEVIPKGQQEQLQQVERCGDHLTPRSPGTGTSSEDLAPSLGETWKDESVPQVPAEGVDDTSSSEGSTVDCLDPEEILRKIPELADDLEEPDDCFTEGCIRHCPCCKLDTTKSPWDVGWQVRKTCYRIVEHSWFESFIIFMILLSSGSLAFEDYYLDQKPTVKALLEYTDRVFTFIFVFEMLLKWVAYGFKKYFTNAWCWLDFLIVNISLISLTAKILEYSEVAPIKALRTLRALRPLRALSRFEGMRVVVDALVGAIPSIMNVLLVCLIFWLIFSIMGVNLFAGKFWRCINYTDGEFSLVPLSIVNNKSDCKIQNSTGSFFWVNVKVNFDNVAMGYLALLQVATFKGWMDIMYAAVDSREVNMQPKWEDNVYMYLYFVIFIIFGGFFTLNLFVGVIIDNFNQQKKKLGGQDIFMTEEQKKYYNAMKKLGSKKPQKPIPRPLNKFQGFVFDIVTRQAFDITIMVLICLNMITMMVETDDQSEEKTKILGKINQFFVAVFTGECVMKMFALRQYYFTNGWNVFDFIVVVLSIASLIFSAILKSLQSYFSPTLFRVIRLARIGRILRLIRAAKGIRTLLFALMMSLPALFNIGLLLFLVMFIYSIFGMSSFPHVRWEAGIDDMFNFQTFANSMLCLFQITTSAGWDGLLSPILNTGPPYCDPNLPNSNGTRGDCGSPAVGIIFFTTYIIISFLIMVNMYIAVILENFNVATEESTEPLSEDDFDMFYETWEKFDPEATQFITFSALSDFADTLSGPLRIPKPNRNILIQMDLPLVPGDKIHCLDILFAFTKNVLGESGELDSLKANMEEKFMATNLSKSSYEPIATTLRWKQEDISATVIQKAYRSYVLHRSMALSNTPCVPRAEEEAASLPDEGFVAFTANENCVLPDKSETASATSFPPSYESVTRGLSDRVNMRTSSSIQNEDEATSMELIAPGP

Row | Compound | IC50 [1] | IC50 [3] | other results
1 | CCOc1c([C@H]2[C@H](C(=O)Nc3ccnc(C(N)=O)c3)O[C@@](C)(C(F)(F)F)[C@H]2C)ccc(F)c1F [Compound 9, (2R,3S,4S,5R)-4-[[3-(2-ethoxy-3,4-difluoro-phenyl)-4,5-dimethyl-5-(trifluoromethyl)tetrahydrofuran-2-carbonyl]amino]pyridine-2-carboxamide] | < 10 nM | – | –
2 | C[C@@H]1[C@H](c2ccc(F)c(F)c2OC(F)F)[C@@H](C(=O)Nc2ccnc(C(N)=O)c2)O[C@]1(C)C(F)(F)F [Compound 10, (2S,3R,4R,5S)-4-[[3-[2-(difluoromethoxy)-3,4-difluoro-phenyl]-4,5-dimethyl-5-(trifluoromethyl)tetrahydrofuran-2-carbonyl]amino]pyridine-2-carboxamide] | > 1000 nM | – | –
3 | C[C@H]1[C@@H](c2ccc(F)c(F)c2OC(F)F)[C@H](C(=O)Nc2ccnc(C(N)=O)c2)O[C@@]1(C)C(F)(F)F [Compound 11, (2R,3S,4S,5R)-4-[[3-[2-(difluoromethoxy)-3,4-difluoro-phenyl]-4,5-dimethyl-5-(trifluoromethyl)tetrahydrofuran-2-carbonyl]amino]pyridine-2-carboxamide] | < 10 nM | – | –
4 | C[C@H]1[C@@H](c2ccc(F)c(F)c2OC(F)F)[C@H](C(=O)Nc2cc[n+]([O-])c(C(N)=O)c2)O[C@@]1(C)C(F)(F)F [Compound 18, (2R,3S,4S,5R)-4-[[3-[2-(difluoromethoxy)-3,4-difluoro-phenyl]-4,5-dimethyl-5-(trifluoromethyl)tetrahydrofuran-2-carbonyl]amino]-1-oxido-pyridin-1-ium-2-carboxamide] | < 10 nM | – | –
5 | COc1c([C@H]2[C@H](C(=O)Nc3cc[n+]([O-])c(C(N)=O)c3)O[C@@](C)(C(F)(F)F)[C@H]2C)ccc(F)c1F [Compound 19, (2R,3S,4S,5R)-4-[[3-(3,4-difluoro-2-methoxy-phenyl)-4,5-dimethyl-5-(trifluoromethyl)tetrahydrofuran-2-carbonyl]amino]-1-oxido-pyridin-1-ium-2-carboxamide] | < 10 nM | – | –
6 | COc1c([C@H]2C[C@](C)(C(F)(F)F)O[C@@H]2C(=O)Nc2ccnc(C(N)=O)c2)ccc(F)c1Cl [Compound 21, (2S,3R,5R)-4-[[3-(3-chloro-4-fluoro-2-methoxy-phenyl)-5-methyl-5-(trifluoromethyl)tetrahydrofuran-2-carbonyl]amino]pyridine-2-carboxamide] | > 1000 nM | – | –
7 | COc1c([C@@H]2C[C@@](C)(C(F)(F)F)O[C@H]2C(=O)Nc2ccnc(C(N)=O)c2)ccc(F)c1Cl [Compound 23, (2R,3S,5S)-4-[[3-(3-chloro-4-fluoro-2-methoxy-phenyl)-5-methyl-5-(trifluoromethyl)tetrahydrofuran-2-carbonyl]amino]pyridine-2-carboxamide] | 10 to 100 nM | – | –
8 | C[C@H]1[C@@H](c2ccc(F)c(F)c2O)[C@H](C(=O)Nc2ccnc(C(N)=O)c2)O[C@@]1(C)C(F)(F)F [Compound 27, (2R,3S,4S,5R)-4-[[3-(3,4-difluoro-2-hydroxy-phenyl)-4,5-dimethyl-5-(trifluoromethyl)tetrahydrofuran-2-carbonyl]amino]pyridine-2-carboxamide] | 10 to 100 nM | – | –
9 | COc1c([C@@H]2[C@@H](C)[C@](C)(C(F)(F)F)O[C@H]2C(=O)Nc2ccnc(C(N)=O)c2)ccc(F)c1F [Compound 50, 4-[[(2R,3S,4R,5R)-3-(3,4-difluoro-2-methoxy-phenyl)-4,5-dimethyl-5-(trifluoromethyl)tetrahydrofuran-2-carbonyl]amino]pyridine-2-carboxamide] | – | – | IC50 [2]: 10 to 100 nM
10 | CCOc1c([C@H]2[C@H](C(=O)Nc3cc[n+]([O-])c(C(N)=O)c3)O[C@@](C)(C(F)(F)F)[C@H]2C)ccc(F)c1F [Compound 55, (2R,3S,4S,5R)-4-[[3-(2-ethoxy-3,4-difluoro-phenyl)-4,5-dimethyl-5-(trifluoromethyl)tetrahydrofuran-2-carbonyl]amino]-1-oxido-pyridin-1-ium-2-carboxamide] | < 10 nM | – | –
11 | [2H]C([2H])([2H])Oc1c([C@H]2[C@H](C(=O)Nc3cc[n+]([O-])c(C(N)=O)c3)O[C@@](C)(C(F)(F)F)[C@H]2C)ccc(F)c1F [Compound 56, 4-[[(2R,3S,4S,5R)-3-[3,4-difluoro-2-(trideuteriomethoxy)phenyl]-4,5-dimethyl-5-(trifluoromethyl)tetrahydrofuran-2-carbonyl]amino]-1-oxido-pyridin-1-ium-2-carboxamide] | < 10 nM | – | –
12 | C[C@H]1[C@@H](c2ccc(F)c(F)c2O)[C@H](C(=O)Nc2cc[n+]([O-])c(C(N)=O)c2)O[C@@]1(C)C(F)(F)F [Compound 57, 4-[[(2R,3S,4S,5R)-3-(3,4-difluoro-2-hydroxy-phenyl)-4,5-dimethyl-5-(trifluoromethyl)tetrahydrofuran-2-carbonyl]amino]-1-oxido-pyridin-1-ium-2-carboxamide] | > 1000 nM | – | –
13 | COc1c([C@@H]2[C@H](C)[C@H](C(C)C)O[C@H]2C(=O)Nc2ccnc(C(N)=O)c2)ccc(F)c1F [Compound 113, 4-[[(2R,3S,4S,5S)-3-(3,4-difluoro-2-methoxy-phenyl)-5-isopropyl-4-methyl-tetrahydrofuran-2-carbonyl]amino]pyridine-2-carboxamide] | 10 to 100 nM | – | –
14 | COc1c([C@H]2[C@H](C(=O)Nc3cccc(C(N)=O)n3)O[C@@](C)(C(F)(F)F)[C@H]2C)ccc(F)c1F [Compound 114, 6-[[(2R,3S,4S,5R)-3-(3,4-difluoro-2-methoxy-phenyl)-4,5-dimethyl-5-(trifluoromethyl)tetrahydrofuran-2-carbonyl]amino]pyridine-2-carboxamide] | – | 10 to 100 nM | –
15 | COc1c([C@H]2[C@H](C(=O)Nc3cncc(C(N)=O)n3)O[C@@](C)(C(F)(F)F)[C@H]2C)ccc(F)c1F [Compound 117, 6-[[(2R,3S,4S,5R)-3-(3,4-difluoro-2-methoxy-phenyl)-4,5-dimethyl-5-(trifluoromethyl)tetrahydrofuran-2-carbonyl]amino]pyrazine-2-carboxamide] | – | 10 to 100 nM | –
16 | COc1c([C@H]2[C@H](C(=O)Nc3cncc(C(N)=O)c3)O[C@@](C)(C(F)(F)F)[C@H]2C)ccc(F)c1F [Compound 118, 5-[[(2R,3S,4S,5R)-3-(3,4-difluoro-2-methoxy-phenyl)-4,5-dimethyl-5-(trifluoromethyl)tetrahydrofuran-2-carbonyl]amino]pyridine-3-carboxamide] | – | < 10 nM | –
17 | COc1c([C@H]2[C@H](C(=O)Nc3cc(C(N)=O)ncc3C)O[C@@](C)(C(F)(F)F)[C@H]2C)ccc(F)c1F [Compound 119, 4-[[(2R,3S,4S,5R)-3-(3,4-difluoro-2-methoxy-phenyl)-4,5-dimethyl-5-(trifluoromethyl)tetrahydrofuran-2-carbonyl]amino]-5-methyl-pyridine-2-carboxamide] | – | < 10 nM | –
18 | COc1c([C@H]2[C@H](C(=O)Nc3cc(C(N)=O)ccn3)O[C@@](C)(C(F)(F)F)[C@H]2C)ccc(F)c1F [Compound 120, 2-[[(2R,3S,4S,5R)-3-(3,4-difluoro-2-methoxy-phenyl)-4,5-dimethyl-5-(trifluoromethyl)tetrahydrofuran-2-carbonyl]amino]pyridine-4-carboxamide] | – | 10 to 100 nM | –
19 | COc1c([C@H]2[C@H](C(=O)Nc3cc(C(N)=O)ncn3)O[C@@](C)(C(F)(F)F)[C@H]2C)ccc(F)c1F [Compound 121, 6-[[(2R,3S,4S,5R)-3-(3,4-difluoro-2-methoxy-phenyl)-4,5-dimethyl-5-(trifluoromethyl)tetrahydrofuran-2-carbonyl]amino]pyrimidine-4-carboxamide] | – | < 10 nM | –
20 | COc1c([C@H]2[C@H](C(=O)Nc3cc(C(N)=O)ncc3F)O[C@@](C)(C(F)(F)F)[C@H]2C)ccc(F)c1F [Compound 122, 4-[[(2R,3S,4S,5R)-3-(3,4-difluoro-2-methoxy-phenyl)-4,5-dimethyl-5-(trifluoromethyl)tetrahydrofuran-2-carbonyl]amino]-5-fluoro-pyridine-2-carboxamide] | – | < 10 nM | –
21 | COc1c([C@H]2[C@H](C(=O)Nc3ccc(F)c(C(N)=O)c3)O[C@@](C)(C(F)(F)F)[C@H]2C)ccc(F)c1F [Compound 123, (2R,3S,4S,5R)-N-(3-carbamoyl-4-fluoro-phenyl)-3-(3,4-difluoro-2-methoxy-phenyl)-4,5-dimethyl-5-(trifluoromethyl)tetrahydrofuran-2-carboxamide] | – | < 10 nM | –
22 | [2H]c1cnc(C(N)=O)cc1NC(=O)[C@@H]1O[C@@](C)(C(F)(F)F)[C@@H](C)[C@H]1c1ccc(F)c(F)c1OC [Compound 124, 5-deuterio-4-[[(2R,3S,4S,5R)-3-(3,4-difluoro-2-methoxy-phenyl)-4,5-dimethyl-5-(trifluoromethyl)tetrahydrofuran-2-carbonyl]amino]pyridine-2-carboxamide] | – | – | IC50 [2]: < 10 nM
23 | COc1c([C@H]2[C@H](C(=O)Nc3ccnc(C(N)=O)c3F)O[C@@](C)(C(F)(F)F)[C@H]2C)ccc(F)c1F [Compound 126, 4-[[(2R,3S,4S,5R)-3-(3,4-difluoro-2-methoxy-phenyl)-4,5-dimethyl-5-(trifluoromethyl)tetrahydrofuran-2-carbonyl]amino]-3-fluoro-pyridine-2-carboxamide] | – | < 10 nM | –
24 | COc1c([C@H]2[C@H](C(=O)Nc3cc(F)nc(C(N)=O)c3)O[C@@](C)(C(F)(F)F)[C@H]2C)ccc(F)c1F [Compound 127, 4-[[(2R,3S,4S,5R)-3-(3,4-difluoro-2-methoxy-phenyl)-4,5-dimcthyl-5-(trifluoromethyl)tetrahydrofuran-2-carbonyl]amino]-6-fluoro-pyridine-2-carboxamide] | – | < 10 nM | –
25 | [2H]c1c(NC(=O)[C@@H]2O[C@@](C)(C(F)(F)F)[C@@H](C)[C@H]2c2ccc(F)c(F)c2OC)ccnc1C(N)=O [Compound 129, 3-deuterio-4-[[(2R,3S,4S,5R)-3-(3,4-difluoro-2-methoxy-phenyl)-4,5-dimethyl-5-(trifluoromethyl)tetrahydrofuran-2-carbonyl]amino]pyridine-2-carboxamide] | – | – | IC50 [2]: < 10 nM
